Experimental data reported in ChEMBL document CHEMBL4043119, “Synthesis and biological evaluation in vitro and in mammalian cells of new heteroaryl carboxyamides as HIV-protease inhibitors” (Bioorg Med Chem, 2017).
Calls of active or inactive are those of the source. The rule behind the calls is not given here.

Legend:
[1] = tested on: Human immunodeficiency virus 1; test: Inhibition of recombinant HIV-1 GFP-tagged protease expressed in HEK293 cells assessed as increase in GFP-tagged protease accumulation at 10 to 30 uM after 24 hrs by flow cytometric analysis; type: cell-based
[2] = Inhibition of wild-type recombinant HIV-1 protease expressed in Escherichia coli using Abz-Thr-Ile-Nle-Phe(p-NO2)-Gln-Arg-NH2 as substrate by fluorescence assay; design: species or system Human immunodeficiency virus 1
[3] = tested on: Human immunodeficiency virus 1; test: Inhibition of recombinant HIV-1 GFP-tagged protease expressed in HEK293 cells assessed as increase in GFP-tagged protease accumulation after 24 hrs by fluorescence microscopic analysis; type: cell-based
[4] = (§1) Cytotoxicity against HEK293 cells after 24 hrs by MTT assay; type: cell-based; conditions: human, HEK293 cells
[5] = tested on: HEK293; test: as §1; type: cell-based; conditions: human, hek293, 24 h
[6] = tested on: Human immunodeficiency virus 1; test: Inhibition of recombinant HIV-1 GFP-tagged protease expressed in HEK293 cells assessed as increase in GFP-tagged protease accumulation at 10 uM after 24 hrs by Western blot analysis; type: cell-based
[7] = tested on: Human immunodeficiency virus 1; test: Inhibition of recombinant HIV-1 GFP-tagged protease expressed in HEK293 cells assessed as increase in GFP-tagged protease accumulation at 10 uM after 24 hrs by flow cytometric analysis; type: cell-based

## COc1ccc(S(=O)(=O)N(CC(C)C)C[C@@H](O)[C@H](Cc2ccccc2)NC(=O)c2ccc3[nH]ccc3c2)cc1OC
[1]
  inhibition: Active
[2]
  IC50: 0.002 µM
[3]
  inhibition: Active
[4]
  CC50 at 24 h: > 200 µM
[5]
  Activity: Dose-dependent effect
[6]
  Inhibition (qualitative activity call): Active

## COc1ccc(S(=O)(=O)N(CC(C)C)C[C@@H](O)[C@H](Cc2ccccc2)NC(=O)c2ccc3sccc3c2)cc1OC
[1]
  inhibition: Active
[2]
  IC50: 0.013 µM
[3]
  inhibition: Active
[4]
  CC50 at 24 h: > 200 µM
[5]
  Activity: Dose-dependent effect
[6]
  Inhibition (qualitative activity call): Active

## COc1ccc(S(=O)(=O)N(CC(C)C)C[C@@H](O)CNC(=O)c2ccc3occc3c2)cc1OC
[2]
  IC50: 0.001 µM

## COc1ccc(S(=O)(=O)N(CC(C)C)C[C@@H](O)[C@H](Cc2ccccc2)NC(=O)c2ccc3occc3c2)cc1OC
[1]
  inhibition: Active
[2]
  IC50: 0.0011 µM
[3]
  inhibition: Active
[4]
  CC50 at 24 h: > 200 µM
[5]
  Activity: Dose-dependent effect
[6]
  Inhibition (qualitative activity call): Active

## CC(C)CN(C[C@@H](O)[C@H](Cc1ccccc1)NC(=O)O[C@H]1CO[C@H]2OCC[C@H]21)S(=O)(=O)c1ccc(N)cc1
[3]
  inhibition: Active
[7]
  inhibition: Active
[6]
  Inhibition (qualitative activity call): Active

## COc1ccc(S(=O)(=O)N(CC(C)C)C[C@@H](O)CNC(=O)c2ccc3[nH]ccc3c2)cc1OC
[2]
  IC50: 4 µM

## COc1ccc(S(=O)(=O)N(CC(C)C)C[C@@H](O)CNC(=O)c2ccc3sccc3c2)cc1OC
[2]
  IC50: 0.015 µM
